Patent publication US9205119B2, “Neuroprotective compositions and methods” (Rutgers, The State University of New Jersey, priority 2009, dated 2015)

What was measured:
Assay type in all cases: in vivo
[1] = test system: pMCAO mice (permanent middle cerebral artery occlusion, focal cerebral ischemia); assay: TTC staining to determine infarct volume after pMCAO; settings: 30 mg/kg intraperitoneally 2 hr before and 6 hr after pMCAO, measured 24 hr post-pMCAO by TTC staining
Description: Human stroke typically involves disruption of blood flow to a specific region supplied often by the middle cerebral artery (MCA). The classical animal model of focal ischemia, MCA occlusion (MCAO), produces the problem of long-term vessel blockade, simulating what often occurs in human stroke. We have induced focal cerebral ischemia in mice by cauterizing the MCA. To evaluate the acute injury induced by MCAO, animals were euthanized at 24 h after MCAO, and the infarct volume was determined using 2,3,5-triphenyltetrazolium chloride (TTC) staining. (Rajanikant, G. K., et al., Stroke, 38:3023-31 (2007)). In brief, 24 hours after pMCAO, animals were deeply anesthetized with an injection of pentobarbital (70 mg/kg, i.p.) and subjected to intracardiac perfusion with 100 mL of isotonic saline delivered through an electronic pump at 100 mm Hg. The head was then removed with a small animal guillotine and the brain carefully dissected out en bloc. After a brief (<1 minute) period of cooling on a bed of ice, the brain was sliced coronally at 1-mm intervals. […] The infarct area was then quantified from the scanned images using the NIH Image J analysis software (version 1.38). […] Vehicle or various doses (3, 30, 50 or 90 mg/kg) of KB-3 or KB-3a were administered intraperitoneally 2 hr before and 6 hr after pMCAO and the infarct volume was measured at 24 hr post-pMCAO by TTC staining. […]

pMCAO mice [2] = assay: Neurological deficit scoring (18-point scale, Garcia) after pMCAO; settings: 30 mg/kg, 24 hr post-pMCAO, mean±SEM, vehicle 12.3±0.48, preoperative 17.5±0.29
Description: To determine whether KB-3a-induced reduction in infarct volume and neuronal degeneration could translate into functional recovery, neurological evaluations were performed right before the surgery and 24 hr following pMCAO. The neurobehavioral deficit scoring system consists of six tests as previously described in detail, which include: (1) spontaneous activity, (2) symmetry of four limb movement, (3) forepaw outstretching while held by tail, (4) climbing wall of wire cage, (5) reaction to touch on either side of trunk, and (6) response to vibrissae touch. (See Garcia, J. H., et al., Stroke, 26:627-34 (1995)). The neurological score given to each mouse at the completion of the evaluation is the summation of all six individual test scores. The minimum neurological score is 3 and the maximum is 18. Using the 18 point-based scale, the normal mean preoperative neurological score was 17.5±0.29.

pMCAO mice [3] = assay: Elevated body-swing test (EBST) after pMCAO; settings: intraperitoneally 2 hr pre- and 6 hr post-pMCAO, 24 hr after ischemia, vehicle 66.4±4.9, pre-operated 50.55±1.05
Description: In addition, the elevated body-swing test (EBST), described in detail by Borlongan et al, was used by us to assess asymmetric motor behavior. (Borlongan, C. V. and Sanberg, P. R., J. Neurosci., 15:5372-8 (1995)). Mice were held by the base of the tail and elevated about 10 cm from the tabletop. The direction of body swing, defined as an upper body turn of >10° to either side, was recorded for 1 min during each of three trials. The number of left and right turns was counted, and the percentage of turns made to the side contralateral to the ipsilateral hemisphere (% right-biased swing) was determined. (Ishibashi, S., et al., Exp. Neurol., 207:302-13 (2007)). The EBST was used to detect asymmetry in motor behavior at 24 hr post-pMCAO.

[4] = test system: pMCAO mice (ipsilateral cortex degenerating neurons); assay: Fluoro Jade B staining to determine degenerating neurons after pMCAO; settings: 30 mg/kg 2 hr before and 6 hr after pMCAO, 24 h after MCAO
Description: We used brain coronal sections […] for Fluoro Jade B staining to determine degenerating neurons, as previously described. (Rajanikant, G. K., et al., Stroke, 38:3023-31 (2007)). In brief, the brain sections on glass slides were dried overnight, immersed for 3 min in 100% ethanol, for 1 min in 70% ethanol, and for 1 min in distilled water, and then incubated in a solution containing 0.01% Fluoro-Jade B (Histo-Chem Inc., Jefferson, Ark.) and 0.1% acetic acid (1:10) for 30 min on a shaker. After three 10-min washes, the slides were coverslipped, and labeled sections were visualized with a confocal laser-scanning microscope.

CC(C)=CCC/C(=C/CC/C(C)=C/CC/C(C)=C/Cc1cc(O)cc(C)c1O)C(=O)O [KB-3, sargahydroquinoic acid]
reduction in infarct volume compared with vehicle-treated group [1]: approximately 48%

CC(=O)Oc1cc(C)c(OC(C)=O)c(CC=C(C)CCC=C(C)CCC=C(CCC=C(C)C)C(=O)O)c1 [KB-3a, 1,4-diacetyl-sargahydroquinoic acid]
neurological score (18 point-based scale) (pMCAO mice [2]): 17±0.41
percent right-biased swing (EBST) (pMCAO mice [3]): 52.16±1.8%
reduction of Fluoro-Jade B staining within the ipsilateral cortex compared to vehicle control [4]: approximately 50%
reduction in infarct volume compared with vehicle-treated group [1]: approximately 54%
